The values that follow come from patent US8530650B2, “2, 5-diamino-substituted pyrido [4, 3-D] pyrimidines as autotaxin inhibitors against cancer” (MERCK PATENT GmbH, priority 2008, dated 2013).

For the assay, the target named is T1, recombinant autotaxin (Homo sapiens, UniProt Q13822).
T1 construct: made in house; host or cells: Hi5 insect cells (baculovirus)
Put plainly: Autotaxin assay (Amplex Red, LPC substrate). The class given is biochemical. As to conditions: 75 μM LPC, Amplex Red fluorescence, ten 1:3 dilutions starting at 30 μM. As for the experimental part:
Autotaxin activity is measured indirectly by means of Amplex Red Reagent. In this course, Amplex Red is measured as fluorogenic indicator for generated H2O2. Autotaxin converts substrate lysophosphatidylcholine (LPC) to phosphocholine and lysophosphatidylic acid (LPA). After the conversion phosphocholine is reacted with alkaline phosphatase to obtain inorganic phosphate and choline. During the next step choline is oxidized with choline oxidase to yield betaine, whereby H2O2 is generated. H2O2 reacts with Amplex Red Reagent in the presence of peroxidase (Horseradish peroxidase) in an 1:1 stochiometry and yields highly fluorescent resorufin. The generated fluorescence is measured in a reaction-dependent kinetic mode in order to enable subtraction of fluorescence signals of possible other fluorescent compounds that are not part of the reaction from total measured fluorescence.
1.5 μl of a standard solution or of the compounds of the invention are dissolved in 20 mM Hepes pH 7.2 with maximally 7.7% DMSO in individual concentrations. The resulting solution is pre-incubated together with 10 μl (16 ng) of highly purified recombinant autotaxin in a black 384-hole microtiter plate for 30 min at 22° C. Thereafter, the reaction is started through the addition of 5 μL-a-lysophosphatidylcholine (LPC), whereby the final concentration of LPC is 75 μM. The mixture is incubated for 90 min. at 37° C. After the incubation Amplex Red Reagent, peroxidase (Horseradish peroxidase) and choline oxidase are added. The fluorescence is immediately measured at a wavelength of 612 nm with an excitation wavelength of 485 nm in a “Tecan Ultra multimode” fluorescence reader. The activity of autotaxin is indirectly calculated via the amount of detected generated H2O2.
For IC50 analysis, ten serial 1:3 dilutions starting at 30 μM for each compound were run in duplicates.
IC50 values were calculated on normalized data. For normalization, control wells were added to each assay plate and the signal of uninhibited control wells was set to 100%, whereas the signal inhibited by 500 μM C14 LPA, (Avanti Polar Lipids, Cat# 857120P) was set to 0%. Curves were fitted and IC50 values calculated by the following model using proprietary analysis software: Y=Bottom+(100−Bottom)/(1+10^((LogIC50−X)*HillSlope))
Where X is the logarithm of concentration. Y is the response; Y starts at Bottom and goes to Top with a sigmoid shape.
Protein: Recombinant autotaxin (baculoviral Hi5 expression)
Substrate: L-a-lysophosphatidyl choline (chicken egg); Avanti Polar Lipids #830071 P
Standard: C14 LPA, Avanti Polar Lipids, Cat# 857120P
Detection Reagent Amplex Red Reagent; Invitrogen #A12222; dissolved in 1.923 ml of DMSO peroxidase Type VI-A (horseradish), Sigma #P6782; dissolved in 7.45 ml of test buffer, Choline Oxidase; Sigma #C5896; dissolved in 2.47 ml test buffer
Detection Reagent Mix: 1:100 dilution of Amplex Red Regent in test buffer
Test buffer: 200 mM Tris-HCl, Merck, Cat # 1.08219, pH 7.9; 0.1% BSA, lipid free, Roche Cat#775835

With `COCCNC(=O)C1CCN(c2nccc3nc(NCc4ccccc4OC)ncc23)CC1` [Compound 75, 1-[2-(2-Methoxy-benzylamino)-pyrido[4,3-d]pyrimidin-5-yl]-piperidine-4-carboxylic acid (2-methoxy-ethyl)-amide], the IC50 (usually the concentration at which inhibition is half-maximal) is < 30 µM. The same measure for `COc1ccc(CNc2ncc3c(Nc4ccc(F)cc4C)nccc3n2)cc1` [Compound 59, N5-(4-Fluoro-2-methyl-phenyl)-N2-(4-methoxy-benzyl)-pyrido[4,3-d]pyrimidine-2,5-diamine]: < 10 µM. As for `O=C(NC1CC1)C1CCN(c2nccc3nc(NCc4ccccc4Cl)ncc23)CC1` [Compound 69, 1-[2-(2-Chloro-benzylamino)-pyrido[4,3-d]pyrimidin-5-yl]-piperidine-4-carboxylic acid cyclopropylamide], the IC50 is < 10 µM. As for `O=C(Nc1cccnc1)C1CCCN(c2nccc3nc(NCc4ccccc4Cl)ncc23)C1` (centres unmarked) [Compound 82, 1-[2-(2-Chloro-benzylamino)-pyrido[4,3-d]pyrimidin-5-yl]-piperidine-3-carboxylic acid pyridin-3-ylamide], the half-maximal inhibitory concentration (IC50) is < 5 µM. `O=C(C1CCCN(c2nccc3nc(NCc4ccccc4Cl)ncc23)C1)N1CCN(c2ccccn2)CC1` (centres unmarked) [Compound 99, {1-[2-(2-Chloro-benzylamino)-pyrido[4,3-d]pyrimidin-5-yl]-piperidin-3-yl}-(4-pyridin-2-yl-piperazin-1-yl)-methanone]: the IC50 was < 5 µM. The figure for `CC(=O)OCC(=O)N1CCN(c2nccc3nc(NCc4ccccc4Cl)ncc23)CC1` [Compound 126, Acetic acid 2-{4-[2-(2-chloro-benzylamino)-pyrido[4,3-d]pyrimidin-5-yl]-piperazin-1-yl}-2-oxo-ethyl ester] is < 5 µM; for `COc1ccc(Nc2nccc3nc(NCc4ccc(Cl)cc4)ncc23)cc1OC` [Compound 47, N2-(4-Chloro-benzyl)-N5-(3,4-dimethoxy-phenyl)-pyrido[4,3-d]pyrimidine-2,5-diamine] it is < 30 µM; for `O=C(Cc1ccccn1)N1CCN(c2nccc3nc(NCc4ccccc4Cl)ncc23)CC1` [Compound 119, 1-{4-[2-(2-Chloro-benzylamino)-pyrido[4,3-d]pyrimidin-5-yl]-piperazin-1-yl}-2-pyridin-2-yl-ethanone] it is < 5 µM. Regarding `O=C(C1CCN(c2nccc3nc(NCc4ccccc4Cl)ncc23)CC1)N1CCC[C@H]1CN1CCCC1` [Compound 142, {1-[2-(2-Chloro-benzylamino)-pyrido[4,3-d]pyrimidin-5-yl]-piperidin-4-yl}-((S)-2-pyrrolidin-1-ylmethyl-pyrrolidin-1-yl)-methanone], the IC50 was < 30 µM. As to `O=C(NCc1cccnc1)C1CCN(c2nccc3nc(NCc4ccccc4Cl)ncc23)CC1` [Compound 62, 1-[2-(2-Chloro-benzylamino)-pyrido[4,3-d]pyrimidin-5-yl]-piperidine-4-carboxylic acid (pyridin-3-ylmethyl)-amide], the IC50 was < 5 µM. Consider `Fc1ccc(Nc2nccc3nc(NCc4ccc(Cl)cc4)ncc23)cc1` [Compound 42, N2-(4-Chloro-benzyl)-N5-(4-fluoro-phenyl)-pyrido[4,3-d]pyrimidine-2,5-diamine], for which the IC50 is < 30 µM. Consider `O=C(Nc1cccnc1)C1CCN(c2nccc3nc(NCc4ccc(Cl)cc4)ncc23)CC1` [Compound 78, 1-[2-(4-Chloro-benzylamino)-pyrido[4,3-d]pyrimidin-5-yl]-piperidine-4-carboxylic acid pyridin-3-ylamide], for which the IC50 was < 5 µM. On to `COC(=O)c1ccc(Nc2nccc3nc(NCc4ccc(Cl)cc4)ncc23)cc1` [Compound 50, 4-[2-(4-Chloro-benzylamino)-pyrido[4,3-d]pyrimidin-5-ylamino]-benzoic acid methyl ester], for which the 50% inhibitory concentration (IC50) was < 30 µM.

Consider `C=CCNC(=O)C1CCN(c2nccc3nc(NCc4ccccc4Cl)ncc23)CC1` [Compound 71, 1-[2-(2-Chloro-benzylamino)-pyrido[4,3-d]pyrimidin-5-yl]-piperidine-4-carboxylic acid allylamide], for which the concentration for half-maximal inhibition (IC50) is < 30 µM. The figure for `COc1ccccc1CNc1ncc2c(N3CCC(C(=O)N4CCN(c5ccccn5)CC4)CC3)nccc2n1` [Compound 76, {1-[2-(2-Methoxy-benzylamino)-pyrido[4,3-d]pyrimidin-5-yl]-piperidin-4-yl}-(4-pyridin-2-yl-piperazin-1-yl)-methanone] is < 30 µM. For `CC(C)NC(=O)C1CCCN(c2nccc3nc(NCc4ccccc4Cl)ncc23)C1` (centres unmarked) [Compound 84, 1-[2-(2-Chloro-benzylamino)-pyrido[4,3-d]pyrimidin-5-yl]-piperidine-3-carboxylic acid isopropylamide], the concentration for half-maximal inhibition (IC50) is < 5 µM. Regarding `COc1ccc(CNc2ncc3c(Nc4ccc(F)c(F)c4)nccc3n2)cc1` [Compound 58, N5-(3,4-Difluoro-phenyl)-N2-(4-methoxy-benzyl)-pyrido[4,3-d]pyrimidine-2,5-diamine], the IC50 is < 30 µM.

Regarding `COc1ccc(Nc2nccc3nc(NCc4ccccc4Cl)ncc23)c(OC)c1` [Compound 14, N2-(2-Chloro-benzyl)-N5-(2,4-dimethoxy-phenyl)-pyrido[4,3-d]pyrimidine-2,5-diamine], the half-maximal inhibitory concentration (IC50) was < 30 µM. `COc1ccccc1CNc1ncc2c(Nc3ccccc3C)nccc2n1` [Compound 34, N2-(2-Methoxy-benzyl)-N5-o-tolyl-pyrido[4,3-d]pyrimidine-2,5-diamine]: the IC50 was < 30 µM. As to `CCN1CCN(C(=O)C2CCN(c3nccc4nc(NCc5ccccc5Cl)ncc34)CC2)CC1` [Compound 72, {1-[2-(2-Chloro-benzylamino)-pyrido[4,3-d]pyrimidin-5-yl]-piperidin-4-yl}-(4-ethyl-piperazin-1-yl)-methanone], the IC50 was < 5 µM. Consider `O=C(NCc1ccco1)C1CCN(c2nccc3nc(NCc4ccccc4Cl)ncc23)CC1` [Compound 65, 1-[2-(2-Chloro-benzylamino)-pyrido[4,3-d]pyrimidin-5-yl]-piperidine-4-carboxylic acid (furan-2-ylmethyl)-amide], for which the IC50 is < 5 µM. With `CC(C)CNc1nccc2nc(NCc3ccc(F)cc3)ncc12` [Compound 30, N2-(4-Fluoro-benzyl)-N5-isobutyl-pyrido[4,3-d]pyrimidine-2,5-diamine], the concentration for half-maximal inhibition (IC50) is < 30 µM.

Turning to `O=C(NCc1ccco1)C1CCCN(c2nccc3nc(NCc4ccccc4Cl)ncc23)C1` (centres unmarked) [Compound 83, 1-[2-(2-Chloro-benzylamino)-pyrido[4,3-d]pyrimidin-5-yl]-piperidine-3-carboxylic acid (furan-2-ylmethyl)-amide], the concentration for half-maximal inhibition (IC50) was < 30 µM.

In the case of `COc1ccccc1CNc1ncc2c(Nc3ccc(F)cc3C)nccc2n1` [Compound 41, N5-(4-Fluoro-2-methyl-phenyl)-N2-(2-methoxy-benzyl)-pyrido[4,3-d]pyrimidine-2,5-diamine], the IC50 is < 30 µM. The same measure for `COc1ccc(Nc2nccc3nc(NCc4ccccc4OC)ncc23)c(OC)c1` [Compound 40, N5-(2,4-Dimethoxy-phenyl)-N2-(2-methoxy-benzyl)-pyrido[4,3-d]pyrimidine-2,5-diamine]: < 30 µM; for `Fc1ccc(Nc2nccc3nc(NCc4ccccc4)ncc23)c(F)c1` [Compound 4, N2-Benzyl-N5-(2,4-difluoro-phenyl)-pyrido[4,3-d]pyrimidine-2,5-diamine]: < 30 µM; for `Clc1ccccc1CNc1ncc2c(NCc3ccccc3Cl)nccc2n1` [Compound 10, N2,N5-Bis-(2-chloro-benzyl)-pyrido[4,3-d]pyrimidine-2,5-diamine]: < 30 µM. As for `O=C(C1CCN(c2nccc3nc(NCc4ccccc4Cl)ncc23)CC1)N1CCCC1` [Compound 66, {1-[2-(2-Chloro-benzylamino)-pyrido[4,3-d]pyrimidin-5-yl]-piperidin-4-yl}-pyrrolidin-1-yl-methanone], the IC50 was < 5 µM.

Take `COc1ccccc1CNc1ncc2c(N3CCC(C(=O)Nc4cc(C)on4)CC3)nccc2n1` [Compound 77, 1-[2-(2-Methoxy-benzylamino)-pyrido[4,3-d]pyrimidin-5-yl]-piperidine-4-carboxylic acid (5-methyl-isoxazol-3-yl)-amide]: the IC50 is < 30 µM.
